These results are taken from ChEMBL document CHEMBL4417631, “Oral peptide inhibitors of interleukin-23 receptor and their use to treat inflammatory bowel diseases” (2017).

The IC50 is the concentration at which inhibition is half-maximal. In general, half-life refers to the time needed for the level to fall by half in the phase considered. High values mean slow loss, low ones fast loss.

Where a SMILES comes first, the peptide text is derived from it.

The nature of data set [1]: Inhibition of interleukin-23 binding to rat interleukin-23 receptor incubated for 2 hrs by competitive binding ELISA. In general terms: In an ELISA, binding on a coated surface is turned into a signal by an enzyme label.
Data set [2] addresses T1, Interleukin-23 receptor (Homo sapiens, UniProt Q5VWK5).
T1 sequence (Q5VWK5 whole entry): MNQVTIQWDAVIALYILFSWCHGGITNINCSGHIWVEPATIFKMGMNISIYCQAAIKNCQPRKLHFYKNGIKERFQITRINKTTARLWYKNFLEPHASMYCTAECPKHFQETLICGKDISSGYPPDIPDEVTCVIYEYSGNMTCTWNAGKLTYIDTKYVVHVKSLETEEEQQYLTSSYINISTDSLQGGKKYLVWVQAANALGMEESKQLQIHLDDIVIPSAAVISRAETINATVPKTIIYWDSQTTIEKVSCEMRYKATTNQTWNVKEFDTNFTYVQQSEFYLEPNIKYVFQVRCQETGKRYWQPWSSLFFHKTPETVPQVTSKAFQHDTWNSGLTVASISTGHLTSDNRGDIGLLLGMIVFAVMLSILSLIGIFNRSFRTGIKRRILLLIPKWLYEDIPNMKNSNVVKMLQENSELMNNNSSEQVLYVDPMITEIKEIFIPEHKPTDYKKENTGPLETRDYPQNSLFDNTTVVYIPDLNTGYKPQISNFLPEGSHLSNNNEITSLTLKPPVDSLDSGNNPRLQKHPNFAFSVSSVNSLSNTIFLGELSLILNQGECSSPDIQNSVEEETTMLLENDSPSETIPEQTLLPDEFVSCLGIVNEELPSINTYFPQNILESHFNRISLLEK
In words: Inhibition of interleukin-23 binding to human interleukin-23 receptor incubated for 2 hrs by competitive binding ELISA.

Data set [3] is described as follows: Half life in simulated intestinal fluid at 20 uM by LC-MS/MS analysis. Format: ADME.
Data set [4] addresses T1, Interleukin-23 receptor. In words: Inhibition of interleukin-23 receptor in human DB cells assessed as reduction in IL-23-stimulated STAT3 phosphorylation incubated for 30 mins by HTRF assay. The data set is classed as cell-based. A general note: TR-FRET usually uses a lanthanide donor and a delayed reading to cut background.

`CC(=O)N[C@@H](CS)C(=O)N[C@@H](CCC(N)=O)C(=O)N[C@H](C(=O)N[C@@H](Cc1c[nH]c2ccccc12)C(=O)N[C@@H](CCC(N)=O)C(=O)N[C@@H](CS)C(=O)N[C@@H](Cc1ccc(O)cc1)C(=O)N[C@@H](Cc1c[nH]c2ccccc12)C(=O)NC(C)(C)C(=O)N[C@@H](CCC(=O)O)C(=O)N[C@@H](CC(N)=O)C(=O)NCC(N)=O)[C@@H](C)O` gave an IC50 in data set [1] of 34 nM.

As to `CC(=O)N[C@@H](CS)C(=O)N[C@@H](CCC(N)=O)C(=O)N[C@H](C(=O)N[C@@H](Cc1c[nH]c2ccccc12)C(=O)N[C@@H](CCC(N)=O)C(=O)N[C@@H](CS)C(=O)N[C@@H](Cc1ccc(O)cc1)C(=O)N[C@@H](Cc1ccc(-c2ccccc2)cc1)C(=O)N[C@@H](CCC(C)C)C(=O)N[C@@H](CCC(=O)O)C(=O)N[C@@H](CC(N)=O)C(=O)NCC(N)=O)[C@@H](C)O`, the IC50 in data set [1] worked out at 51 nM.

As for `CC(=O)N[C@@H](CS)C(=O)N[C@@H](CCC(N)=O)C(=O)N[C@H](C(=O)N[C@@H](Cc1c[nH]c2ccccc12)C(=O)N[C@@H](CCC(N)=O)C(=O)N[C@@H](CS)C(=O)N[C@@H](Cc1ccc(O)cc1)C(=O)N[C@@H](Cc1c[nH]c2ccccc12)C(=O)N[C@@H](CCC(C)C)C(=O)N[C@@H](CCC(=O)O)C(=O)N[C@@H](CC(N)=O)C(=O)N[C@@H](Cc1ccccc1)C(N)=O)[C@@H](C)O`, the IC50 in data set [1] is 182 nM.

Consider `CC(=O)N[C@@H](CS)C(=O)N[C@@H](CCCNC(=N)N)C(=O)N[C@H](C(=O)N[C@@H](Cc1c[nH]c2ccccc12)C(=O)N[C@@H](CCC(N)=O)C(=O)N[C@@H](CS)C(=O)N[C@@H](Cc1ccc(O)cc1)C(=O)N[C@@H](Cc1c[nH]c2ccccc12)C(=O)N[C@@H](CCCNC(=N)N)C(=O)N[C@@H](CCC(=O)O)C(=O)N[C@@H](CC(N)=O)C(=O)NCC(=O)N[C@@H](C)C(=O)N[C@H](CCCCN)C(N)=O)[C@@H](C)O`, for which, in data set [1], the half-maximal inhibitory concentration (IC50) was determined as 86 nM.

`CC(=O)N[C@@H](CS)C(=O)N[C@@H](CCC(N)=O)C(=O)N[C@H](C(=O)N[C@@H](Cc1c[nH]c2ccccc12)C(=O)N[C@@H](CCC(N)=O)C(=O)N[C@@H](CS)C(=O)N[C@@H](Cc1ccc2ccccc2c1)C(=O)N[C@@H](Cc1c[nH]c2ccccc12)C(=O)N[C@@H](CCC(C)C)C(=O)N[C@@H](CCC(=O)O)C(=O)N[C@@H](CC(N)=O)C(=O)NCC(N)=O)[C@@H](C)O` gave an IC50 in data set [1] of 73 nM.

Consider `CC(=O)N[C@@H](CS)C(=O)N(C)[C@@H](CCC(N)=O)C(=O)N[C@H](C(=O)N[C@@H](Cc1c[nH]c2ccccc12)C(=O)N[C@@H](CCC(N)=O)C(=O)N[C@@H](CS)C(=O)N[C@@H](Cc1ccc(O)cc1)C(=O)N[C@@H](Cc1c[nH]c2ccccc12)C(=O)N[C@@H](CCCNC(=N)N)C(=O)N[C@H](C(=O)N[C@@H](Cc1ccccc1)C(=O)NCC(=O)NCCC(=O)N[C@H](CCCCN)C(N)=O)C(C)C)[C@@H](C)O`, for which the half-maximal inhibitory concentration (IC50) in data set [1] is 85 nM.

Regarding `CC(=O)N[C@@H](CS)C(=O)N[C@@H](C)C(=O)N[C@@H](CC(=O)O)C(=O)N[C@@H](Cc1c[nH]c2ccccc12)C(=O)N[C@H](C(=O)N[C@@H](CS)C(=O)N[C@@H](Cc1ccc(O)cc1)C(=O)N[C@@H](Cc1c[nH]c2ccccc12)C(=O)N[C@@H](CCCNC(=N)N)C(=O)N[C@@H](CCCCN)C(=O)N[C@@H](Cc1ccccc1)C(=O)NCC(=O)NCCC(=O)N[C@H](CCCCN)C(N)=O)C(C)C`, the IC50 in data set [1] amounted to 33 nM.

In the case of `CC(=O)N[C@@H](CS)C(=O)N[C@@H](CCCNC(=N)N)C(=O)N[C@H](C(=O)N[C@@H](Cc1c[nH]c2ccccc12)C(=O)N[C@@H](CCC(N)=O)C(=O)N[C@@H](CS)C(=O)N[C@@H](Cc1ccc(O)cc1)C(=O)N[C@@H](Cc1c[nH]c2ccccc12)C(=O)N[C@@H](CC(C)C)C(=O)N[C@@H](CCCNC(=N)N)C(=O)N[C@@H](CC(C)C)C(=O)NCC(=O)N[C@@H](CC(=O)O)C(=O)N[C@@H](CCC(=O)O)C(=O)NCC(N)=O)[C@@H](C)O` (Ac-CRTWQCYWLRLGDEG-NH2), the IC50 in data set [1] came to 483 nM.

In data set [1], `CC(=O)N[C@@H](CS)C(=O)N[C@@H](CCC(N)=O)C(=O)N[C@H](C(=O)N[C@@H](Cc1c[nH]c2ccccc12)C(=O)N[C@@H](CCC(N)=O)C(=O)N[C@@H](CS)C(=O)N[C@@H](Cc1ccc(O)cc1)C(=O)N[C@@H](Cc1c[nH]c2ccccc12)C(=O)N[C@@H](CCCNC(=N)N)C(=O)N[C@H](C(=O)N[C@@H](Cc1ccccc1)C(=O)NCC(=O)NCCOCC(=O)N[C@H](CCCCN)C(N)=O)C(C)C)[C@@H](C)O` had an IC50 of 62 nM.

`CC(=O)N[C@@H](CS)C(=O)N[C@@H](CO)C(=O)N[C@H](C(=O)N[C@@H](Cc1c[nH]c2ccccc12)C(=O)N[C@@H](CCC(=O)O)C(=O)N[C@@H](CS)C(=O)N[C@@H](Cc1ccc(O)cc1)C(=O)N[C@@H](Cc1c[nH]c2ccccc12)C(=O)N[C@@H](Cc1cnc[nH]1)C(=O)N[C@H](C(=O)N[C@@H](Cc1ccc(O)cc1)C(=O)NCC(N)=O)[C@@H](C)O)[C@@H](C)O`: in data set [1], the IC50 stood at 286 nM.

The compound `CC(=O)N[C@@H](Cc1ccccc1)C(=O)N[C@@H](CS)C(=O)N[C@@H](CCC(N)=O)C(=O)N[C@H](C(=O)N[C@@H](Cc1c[nH]c2ccccc12)C(=O)N[C@@H](CCC(N)=O)C(=O)N[C@@H](CS)C(=O)N[C@@H](Cc1ccc(O)cc1)C(=O)N[C@@H](Cc1c[nH]c2ccccc12)C(=O)N[C@@H](CCC(C)C)C(=O)N[C@@H](CCC(=O)O)C(=O)N[C@@H](CC(N)=O)C(=O)NCC(N)=O)[C@@H](C)O` had an IC50 in data set [1] of 25 nM.

`C[C@@H](O)[C@H](NC(=O)[C@H](CCC(N)=O)NC(=O)[C@@H](N)CS)C(=O)N[C@@H](Cc1c[nH]c2ccccc12)C(=O)N[C@@H](CCC(N)=O)C(=O)N[C@@H](CS)C(=O)N[C@@H](Cc1ccc(O)cc1)C(=O)N[C@@H](Cc1c[nH]c2ccccc12)C(=O)N[C@@H](CCCN)C(=O)N[C@@H](CN)C(=O)N[C@@H](Cc1ccccc1)C(=O)NCC(=O)NCCOCC(=O)N[C@H](CCCCN)C(N)=O`: the half-inhibitory concentration (IC50) in data set [1] stood at 276 nM.

Turning to `CC(=O)N[C@H]1CCSC[C@@H](C(=O)N[C@@H](Cc2ccc(OCCN)cc2)C(=O)N[C@@H](Cc2ccc3ccccc3c2)C(=O)N[C@@H](CCCN)C(=O)N[C@@H](CN)C(=O)N[C@@H](CC(N)=O)C(=O)NCC(N)=O)NC(=O)[C@H](CCC(N)=O)NC(=O)[C@H](Cc2c[nH]c3ccccc23)NC(=O)[C@H]([C@@H](C)O)NC(=O)[C@H](CCC(N)=O)NC1=O`, the IC50 in data set [2] and in data set [4] was 25 to 100 nM each time. In data set [3], this compound came in with a half-life at 20 µM of less than 1 h.

Compound `CC(=O)N[C@@H](CS)C(=O)N[C@@H](CCCN)C(=O)N[C@H](C(=O)N[C@@H](Cc1c[nH]c2ccccc12)C(=O)N[C@@H](CCC(N)=O)C(=O)N[C@@H](CS)C(=O)N[C@@H](Cc1ccc(O)cc1)C(=O)N[C@@H](Cc1c[nH]c2ccccc12)C(=O)N[C@@H](CCCNC(=N)N)C(=O)N[C@H](C(=O)N[C@@H](Cc1ccccc1)C(=O)NCC(=O)NCCOCC(=O)N[C@H](CCCCN)C(N)=O)C(C)C)[C@@H](C)O` yielded an IC50 in data set [1] of 69 nM.

On to `CC(=O)N[C@@H](CS)C(=O)N[C@@H](CCC(N)=O)C(=O)N[C@H](C(=O)N[C@@H](Cc1c[nH]c2ccccc12)C(=O)N[C@@H](CCC(N)=O)C(=O)N[C@@H](CS)C(=O)N[C@@H](Cc1ccc(O)cc1)C(=O)N[C@@H](Cc1c[nH]c2ccccc12)C(=O)N[C@@H](Cc1cccnc1)C(=O)N[C@@H](CCC(=O)O)C(=O)N[C@@H](CC(N)=O)C(=O)NCC(N)=O)[C@@H](C)O`, for which the IC50 in data set [1] stood at 20 nM.

`CC(=O)N[C@@H](CS)C(=O)N(C)[C@@H](CCCNC(=N)N)C(=O)N[C@H](C(=O)N[C@@H](Cc1c[nH]c2ccccc12)C(=O)N[C@@H](CCC(N)=O)C(=O)N[C@@H](CS)C(=O)N[C@@H](Cc1ccc(O)cc1)C(=O)N[C@@H](Cc1c[nH]c2ccccc12)C(=O)N[C@@H](CCCNC(=N)N)C(=O)N[C@H](C(=O)N[C@@H](Cc1ccccc1)C(=O)NCC(=O)NCCC(=O)N[C@H](CCCCN)C(N)=O)C(C)C)[C@@H](C)O` displayed an IC50 in data set [1] of 192 nM.

In data set [1], `CC(=O)N[C@@H](CS)C(=O)N[C@@H](CCC(N)=O)C(=O)N[C@H](C(=O)N[C@@H](Cc1c[nH]c2ccccc12)C(=O)N[C@@H](CCC(N)=O)C(=O)N[C@@H](CS)C(=O)N[C@@H](Cc1ccc(O)cc1)C(=O)N[C@@H](Cc1c[nH]c2ccccc12)C(=O)N[C@@H](CCC(C)C)C(=O)N[C@@H](CCC(=O)O)C(=O)N[C@@H](CC(N)=O)C(=O)N[C@@H](CCC(=O)O)C(N)=O)[C@@H](C)O` had an IC50 of 1000 nM.

`CC(=O)NCCCC[C@H](NC(=O)[C@H](CCCN)NC(=O)[C@H](Cc1ccc2ccccc2c1)NC(=O)[C@H](Cc1ccc(OCCN)cc1)NC(=O)[C@@H]1CSCC[C@H](NC(C)=O)C(=O)N[C@@H](CCC(N)=O)C(=O)N[C@@H]([C@@H](C)O)C(=O)N[C@@H](Cc2c[nH]c3ccccc23)C(=O)N[C@@H](CCC(N)=O)C(=O)N1)C(=O)N[C@@H](CC(N)=O)C(=O)NCC(N)=O`: the IC50 in data set [2] and in data set [4] was 10 to 25 nM each time. For the same compound, in data set [3], the half-life at 20 µM is less than 1 h.

Regarding `CC(=O)NCCCC[C@H](NC(=O)[C@](C)(CCCCN)NC(=O)[C@H](Cc1ccc2ccccc2c1)NC(=O)[C@H](Cc1ccc(Cl)c(Cl)c1)NC(=O)[C@@H]1CSCC[C@H](NC(C)=O)C(=O)N[C@@H](CCC(N)=O)C(=O)N[C@@H]([C@@H](C)O)C(=O)N[C@@H](Cc2c[nH]c3ccccc23)C(=O)N[C@@H](CCC(N)=O)C(=O)N1)C(=O)N[C@@H](CC(N)=O)C(=O)NCC(N)=O`, the IC50 lay within 100 to 1000 nM in data set [2] and 25 to 100 nM in data set [4]. In data set [3], this compound came in with a half-life at 20 µM of 2 to 3 h.
